This note sets out measurements from US9963462B2 (priority 2015, dated 2018).

Assay [1] concerns BH4 levels in SK-N-BE (2) cells. Kind of assay: SKN-N-BE (2) cellular assay, BH4 levels by LC-MS. It is filed as cell-based. The following applies: Homo sapiens, SKNBE2, read-out: SK-N-BE(2) IC50, SK-N-BE (2) cells, BH4 levels by LC-MS.
Assay [2] concerns the target SNAP-hSPR (sepiapterin reductase, SPR) (Homo sapiens, UniProt P35270). Briefly: biochemical. It counts as binding. The conditions noted are these: terbium labelled SNAP-hSPR / SSZ labelled SNAP-EGFP; read-out: hTR-FRET IC50.

Sequence of SNAP-hSPR (sepiapterin reductase, SPR) (P35270 whole entry): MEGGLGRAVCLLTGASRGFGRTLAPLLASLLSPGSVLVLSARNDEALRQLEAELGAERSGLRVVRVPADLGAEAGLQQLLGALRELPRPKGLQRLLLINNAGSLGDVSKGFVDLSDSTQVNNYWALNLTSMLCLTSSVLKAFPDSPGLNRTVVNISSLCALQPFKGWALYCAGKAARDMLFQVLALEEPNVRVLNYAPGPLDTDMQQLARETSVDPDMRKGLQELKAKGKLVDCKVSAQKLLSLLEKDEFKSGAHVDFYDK

Take `O=C(c1cnn(-c2nc3c(c(=O)[nH]2)CCC3)c1)N1CCC(CC(F)(F)F)CC1` [Q-0744]: the figures for the IC50 in assay [1] and in assay [2] were 100 nM and 3 nM, respectively.

In the case of `Cc1c(C(=O)N2C3CCC2CN(C(=O)OC(C)(C)C)C3)cnn1-c1nc2c(c(=O)[nH]1)CCC2` [Q-0745], the concentration for half-maximal inhibition (IC50) stood at 200 nM in assay [1] and 4 nM in assay [2].

Turning to `CCC1(C#N)CCN(C(=O)c2cnn(-c3nn4cc(F)cc4c(=O)[nH]3)c2)CC1` [Q-0746], the IC50 was 600 nM in assay [1] and 4 nM in assay [2].

As to `Cc1c(C(=O)N2CCC(CC(F)(F)F)CC2)cnn1-c1nn2cc(F)cc2c(=O)[nH]1` [Q-0747], the values for the IC50 in assay [1] and in assay [2] were 800 nM and 8 nM, respectively.

With `Cc1c(C(=O)N2CCC3(CN(C(=O)OC(C)(C)C)C3)C2)cnn1-c1nn2cccc2c(=O)[nH]1` [Q-0748], the IC50 is 900 nM in assay [1] and 4 nM in assay [2].

For the compound `Cc1c(C(=O)N2CC(c3ccc(F)c(F)c3)C2)cnn1-c1nc2c(c(=O)[nH]1)CCC2` [Q-0749], the IC50 was determined as 50 nM in assay [1] and 3 nM in assay [2].

Turning to `O=C(c1cnn(-c2nc3sccc3c(=O)[nH]2)c1)N1CCC(C2CC2)CC1` [Q-0751], the IC50 in assay [1] was found to be 200 nM; in assay [2], 3 nM.

For `O=C(c1cnn(-c2nc3sccc3c(=O)[nH]2)c1)N1CCC(CC(F)(F)F)CC1` [Q-0752], the results for the IC50 in assay [1] and in assay [2] were 500 nM and 4 nM, respectively.

For the compound `O=C(c1cnn(-c2nc3sccc3c(=O)[nH]2)c1)N1CCC(C(F)(F)F)CC1` [Q-0753], the IC50 came to 200 nM in assay [1] and 2 nM in assay [2].

Turning to `O=C(c1cnn(-c2nc3sccc3c(=O)[nH]2)c1)N1CCC(c2c[nH]c3ccccc23)CC1` [Q-0754], the figures for the half-maximal inhibitory concentration (IC50) in assay [1] and in assay [2] were 100 nM and 9 nM, respectively.

For the compound `O=C(c1cnn(-c2nc3sccc3c(=O)[nH]2)c1)N1CCN2CCC[C@@H]2C1` [Q-0755], the half-maximal inhibitory concentration (IC50) in assay [1] came to 500 nM; in assay [2], 4 nM.

With `Cc1c(C(=O)N2CCN(C)CC2)cnn1-c1nn2cccc2c(=O)[nH]1` [Q-0756], the concentration for half-maximal inhibition (IC50) worked out at 800 nM in assay [1] and 4 nM in assay [2].

As to `CC1CCN(C(=O)c2cnn(-c3nn4cccc4c(=O)[nH]3)c2C2CC2)CC1` [Q-0757], the IC50 in assay [1] worked out at 200 nM; in assay [2], 2 nM.

Turning to `O=C(c1cnn(-c2nn3c(F)ccc3c(=O)[nH]2)c1)N1CCC(CC(F)(F)F)CC1` [Q-0758], the figures for the IC50 in assay [1] and in assay [2] were 90 nM and 2 nM, respectively.

As to `Cc1c(C(=O)N2CCN(C)c3ccccc32)cnn1-c1nn2cccc2c(=O)[nH]1` [Q-0759], the values for the IC50 in assay [1] and in assay [2] were 200 nM and 1 nM, respectively.

For `Cc1c(C(=O)N2CC3(CCN(C(=O)OC(C)(C)C)C3)C2)cnn1-c1nn2cccc2c(=O)[nH]1` [Q-0762], the IC50 is 200 nM in assay [1] and 2 nM in assay [2].

Regarding `Cc1c(C(=O)N2CCC(C(F)(F)F)CC2)cnn1-c1nc2c(c(=O)[nH]1)CC2` [Q-0765], the results for the IC50 in assay [1] and in assay [2] were 300 nM and 5 nM, respectively.

Take `Cc1c(C(=O)N2CC(c3ccc(F)c(F)c3)C2)cnn1-c1nn2cccc2c(=O)[nH]1` [Q-0771]: the IC50 is 200 nM in assay [1] and 1 nM in assay [2].

As to `Cc1c(C(=O)N2C[C@@H]3CN(C(=O)OC(C)(C)C)[C@@H]3C2)cnn1-c1nn2cccc2c(=O)[nH]1` [Q-0773], the IC50 amounted to 1700 nM in assay [1] and 6 nM in assay [2].

With `O=C(O)c1cn(-c2nn3cccc3c(=O)[nH]2)nn1` [Q-0774], the figures for the 50% inhibitory concentration (IC50) in assay [1] and in assay [2] were 10000 nM and 200 nM, respectively.

In the case of `CCC1(C#N)CCN(C(=O)c2cn(-c3nn4cccc4c(=O)[nH]3)nn2)CC1` [Q-0775], the figures for the IC50 in assay [1] and in assay [2] were 1000 nM and 2 nM, respectively.

For the compound `Cc1c(C(=O)O)nnn1-c1nn2cccc2c(=O)[nH]1` [Q-0779], the IC50 in assay [1] is 10000 nM; in assay [2], 20 nM.

Turning to `CCOC(=O)c1nnn(-c2nn3cccc3c(=O)[nH]2)c1C` [Q-0780], the IC50 in assay [1] was determined as 200 nM; in assay [2] it was 1 nM.

Turning to `O=C(c1cn(-c2nn3cccc3c(=O)[nH]2)nn1)N1CCC(C(F)(F)F)CC1` [Q-0781], the half-maximal inhibitory concentration (IC50) was 200 nM in assay [1] and 1 nM in assay [2].

Regarding `O=C(c1cnn(-c2nn3cccc3c(=O)[nH]2)c1)N1CCC(OCC(F)(F)F)CC1` [Q-0783], the IC50 in assay [1] is 300 nM; in assay [2], 2 nM.

Take `Cc1c(C(=O)N2CC3(CCCN3C(=O)OC(C)(C)C)C2)cnn1-c1nn2cccc2c(=O)[nH]1` [Q-0785]: the IC50 in assay [1] stood at 200 nM; in assay [2], 1 nM.

Consider `Cc1c(C(=O)N2CC[C@@H]3CN(C(=O)OC(C)(C)C)[C@@H]3C2)cnn1-c1nn2cccc2c(=O)[nH]1` [Q-0788], for which the IC50 came out at 3600 nM in assay [1] and 10 nM in assay [2].

As for `Cc1c(C(=O)N2C[C@@H]3CCN(C(=O)OC(C)(C)C)C[C@@H]32)cnn1-c1nn2cccc2c(=O)[nH]1` [Q-0790], the IC50 in assay [1] came out at 1400 nM; in assay [2] it was 7 nM.

As to `Cc1c(C(=O)N2CC3CC2C3)cnn1-c1nn2cccc2c(=O)[nH]1` [Q-0791], the IC50 in assay [1] is 600 nM; in assay [2], 2 nM.

Take `Cc1c(C(=O)N2CCC3(CC2)COC3)cnn1-c1nn2cccc2c(=O)[nH]1` [Q-0793]: the IC50 in assay [1] stood at 1000 nM; in assay [2], 3 nM.

`Cc1c(C(=O)N2CCC3(CC2)OCCO3)cnn1-c1nn2cccc2c(=O)[nH]1` [Q-0795]: the half-inhibitory concentration (IC50) in assay [1] was found to be 500 nM; in assay [2] it was 2 nM.

Consider `Cc1c(C(=O)N2CC3CC(F)(F)CC3C2)cnn1-c1nn2cccc2c(=O)[nH]1` (stereo not drawn) [Q-0796], for which the results for the IC50 in assay [1] and in assay [2] were 200 nM and 1 nM, respectively.

Turning to `Cc1c(C(=O)N2CCN(C(=O)OC(C)(C)C)CC23CCC3)cnn1-c1nn2cccc2c(=O)[nH]1` [Q-0798], the IC50 came to 300 nM in assay [1] and 2 nM in assay [2].

On to `Cc1c(C(=O)N2CC3CC(C2)C3(F)F)cnn1-c1nn2cccc2c(=O)[nH]1` [Q-0799], for which the IC50 in assay [1] is 300 nM; in assay [2], 1 nM.

As for `Cc1c(C(=O)N2CCN(c3ccccc3)CC2)cnn1-c1nn2cccc2c(=O)[nH]1` [Q-0802], the IC50 in assay [1] was 67 nM; in assay [2], 1 nM.

Take `Cc1c(C(=O)N2CCC(O)(C(F)(F)F)CC2)cnn1-c1nn2cccc2c(=O)[nH]1` [Q-0803]: the values for the IC50 in assay [1] and in assay [2] were 200 nM and 1 nM, respectively.

Take `Cc1c(C(=O)N2CC3(C2)CC(O)(C(F)(F)F)C3)cnn1-c1nn2cccc2c(=O)[nH]1` [Q-0805]: the IC50 in assay [1] was 2300 nM; in assay [2] it was 4 nM.

On to `Cc1c(C(=O)N2CC3[C@@H](C2)CN3C(=O)OC(C)(C)C)cnn1-c1nn2cccc2c(=O)[nH]1` (stereo partly drawn) [Q-0806], for which the IC50 in assay [1] is 1200 nM; in assay [2], 3 nM.

In the case of `Cc1c(C(=O)N2CC3C(C2)C3(F)F)cnn1-c1nn2cccc2c(=O)[nH]1` (stereo not drawn) [Q-0807], the IC50 in assay [1] amounted to 400 nM; in assay [2], 2 nM.

Regarding `Cc1c(C(=O)N2CCC3(CCCC3)C2)cnn1-c1nn2cccc2c(=O)[nH]1` [Q-0808], the IC50 in assay [1] was found to be 200 nM; in assay [2] it was 1 nM.

Turning to `Cc1c(C(=O)N2CC3CN(C(=O)OC(C)(C)C)CC3C2)cnn1-c1nn2cccc2c(=O)[nH]1` (stereo not drawn) [Q-0809], the figures for the half-inhibitory concentration (IC50) in assay [1] and in assay [2] were 900 nM and 6 nM, respectively.

For `Cc1c(C(=O)N2CC(O)(C3CC3)C2)cnn1-c1nn2cccc2c(=O)[nH]1` [Q-0814], the IC50 in assay [1] was 400 nM; in assay [2], 2 nM.

On to `Cc1c(C(=O)N2CC(N3CCC(F)(F)CC3)C2)cnn1-c1nn2cccc2c(=O)[nH]1` [Q-0818], for which the IC50 in assay [1] amounted to 900 nM; in assay [2], 2 nM.

Take `Cc1c(C(=O)N2CCCC3(CC3)C2)cnn1-c1nn2cccc2c(=O)[nH]1` [Q-0819]: the IC50 in assay [1] was determined as 200 nM; in assay [2], 1 nM.

Take `Cc1c(C(=O)N2CCN(C(=O)OC(C)(C)C)C3(CCC3)C2)cnn1-c1nn2cccc2c(=O)[nH]1` [Q-0820]: the 50% inhibitory concentration (IC50) is 40 nM in assay [1] and 1 nM in assay [2].

As to `Cc1c(C(=O)N2CCN(c3ccc(F)cc3)CC2)cnn1-c1nn2cccc2c(=O)[nH]1` [Q-0823], the results for the half-inhibitory concentration (IC50) in assay [1] and in assay [2] were 66 nM and 1 nM, respectively.

`Cc1c(C(=O)N2CC3CC(=O)CC3C2)cnn1-c1nn2cccc2c(=O)[nH]1` (stereo not drawn) [Q-0824]: the figures for the IC50 in assay [1] and in assay [2] were 1800 nM and 5 nM, respectively.

Regarding `CCC(C#N)C1CCN(C(=O)c2cnn(-c3nn4cccc4c(=O)[nH]3)c2C)CC1` (stereo not drawn) [Q-0826], the IC50 is 100 nM in assay [1] and 1 nM in assay [2].

For the compound `Cc1c(C(=O)N2CCN(c3ccc(Cl)cc3)CC2)cnn1-c1nn2cccc2c(=O)[nH]1` [Q-0827], the values for the IC50 in assay [1] and in assay [2] were 65 nM and 2 nM, respectively.

As to `Cc1c(C(=O)N2CCN(c3ccc(Cl)c(Cl)c3)CC2)cnn1-c1nn2cccc2c(=O)[nH]1` [Q-0828], the IC50 in assay [1] is 50 nM; in assay [2], 4 nM.

With `Cc1c(C(=O)N2CCN(c3ccc(C#N)cc3)CC2)cnn1-c1nn2cccc2c(=O)[nH]1` [Q-0829], the IC50 was found to be 80 nM in assay [1] and 1 nM in assay [2].

In the case of `Cc1c(C(=O)N2CCN(c3cccc(Cl)c3)CC2)cnn1-c1nn2cccc2c(=O)[nH]1` [Q-0830], the values for the IC50 in assay [1] and in assay [2] were 41 nM and 1 nM, respectively.

Regarding `Cc1c(C(=O)N2CCN(c3cnccn3)CC2)cnn1-c1nn2cccc2c(=O)[nH]1` [Q-0831], the IC50 amounted to 400 nM in assay [1] and 2 nM in assay [2].

On to `Cc1c(C(=O)N2CCC(C(F)(F)F)CC2)nnn1-c1nn2cccc2c(=O)[nH]1` [Q-0832], for which the figures for the IC50 in assay [1] and in assay [2] were 200 nM and 1 nM, respectively.

For `Cc1c(C(=O)N2CCN(c3ccc(C(F)(F)F)cc3)CC2)cnn1-c1nn2cccc2c(=O)[nH]1` [Q-0833], the 50% inhibitory concentration (IC50) in assay [1] was found to be 200 nM; in assay [2], 6 nM.

Regarding `CCOC(=O)c1cn(-c2nn3cccc3c(=O)[nH]2)nn1` [Q-0839], the figures for the half-inhibitory concentration (IC50) in assay [1] and in assay [2] were 1500 nM and 8 nM, respectively.

Regarding `Cc1c(C(=O)N2CCN(c3cccc(C(F)(F)F)c3)CC2)cnn1-c1nn2cccc2c(=O)[nH]1` [Q-0840], the figures for the IC50 in assay [1] and in assay [2] were 200 nM and 3 nM, respectively.
